Test results taken from patent US9233961B2, “Compounds and compositions for the treatment of parasitic diseases” (Novartis AG, priority 2013, dated 2016).
Read-outs that look alike come from different tables or passages of the source.

Key:
[1] = system: L. donovani HU3 strain in mouse peritoneal macrophages; assay: Assay for proliferation of Leishmania parasites in mouse peritoneal macrophages; assay type: cell-based, Leishmania donovani; conditions: Leishmania donovani, Peritoneal macrophage
Source text: Assay for Proliferation of Leishmania Parasites
The activity of a compound according to the present invention for inhibition of parasitemai can be assessed by the parasite proliferation assay. The assay measures the increase in the parasite number in the assayed plate well using a DNA intercalating dye, SYBR Green I® dye (INVITROGEN) to stain Leishmania cell nuclei. It is understood that the assays illustrate the invention without in any way limiting the scope of the invention.
L. donovani HU3 strain is propagated by infecting BALB/c mice through tail vein injection with 10^7 Leishmania parasites. Infected mice are allowed to develop infection during 9-11 weeks post-infection. During this time, the parasites accumulate in the infected mouse spleens to large numbers, and the infected mice serve as the source of parasites for the in vitro measurement of compound efficacies. To assay a compound for anti-leishmanial activity, peritoneal macrophages isolated from non-infected BALB/c mice are seeded into 384-well plates at density 2×10^4 macrophages per well in […] of medium (RPMI 1640, 10% […], 10 mM HEPES, 1 mM sodium pyruvate, 1% Pen/Strep). Subsequently, the seeded plates are placed into an incubator set to maintain 37° C. temperature and atmosphere with 5% CO2. The next day, Leishmania parasites are isolated from the spleens of mice infected for 9-11 weeks and 4×10^5 isolated parasites in […] of the above media are added to each plate well. Plates are then returned into incubators and infection is allowed to proceed for 24 hours. After the infection of macrophages is completed, […] of compounds of the invention in the above medium, which also contains 5% DMSO, are added to plate wells containing infected macrophages. At the same time control compounds (miltefosine and amphotericin B) and DMSO are added to plates to serve as the positive and negative controls, respectively. After the compound addition, the plates are returned into incubator and cells infected with parasites are cultured for 5 days. At the end of cultivation, […] of 8% paraformaldehyde is added to plate wells and incubated for 15 min at room temperature. Following the incubation, the paraformaldehyde from plate wells is aspirated, and […] of PBS containing 0.2% Triton X-100 is added to wells. After 15 min incubation, the solution is aspirated from wells again, and replaced with SybrGreen Dye solution in PBS (1:125,000 dilution). Infected cells are imaged with Evotec Opera high-content microscope, and the number of parasites in well is determined by counting parasite nuclei visualized by staining with SybrGreen dye. The percentage inhibition of 50%, EC50, is calculated for each compound.
The inhibitory efficacy of the compounds of the invention in delaying the proliferation of L. donovani in mouse peritoneal macrophages is provided in Table I, infra.

[2] = system: Leishmania donovani axenic amastigote parasites; assay: Leishmania donovani axenic amastigote proliferation assay; assay type: cell-based
Description: Leishmania Donovani Axenic Amastigote Proliferation Assay
Leishmania donovani axenic amastigote parasites are grown at 37° C., 5% CO2 in media made of RPMI 1640, 4 mM L-glutamine, 20% heat inactivated FBS, 100 units/ml of penicillin and 100 μg/ml of streptomycin, 23 μM Folic Acid, 100 μM Adenosine, 22 mM D-glucose, 25 mM MES. The pH of media is adjusted to 5.5 at 37° C. using HCl. 20 μL of media is first dispensed into 384 well plates and 100 nL of the compounds of invention in DMSO are added to the plate wells. At the same time control compounds and DMSO are added to plates to serve as the positive and negative controls, respectively. 40 μL of parasite culture (9600 parasites) are then added to the plate wells. The plates are then placed into incubators. After 2 day incubation, 20 μL of Cell TiterGlo (Promega) is added to the plate wells. The luminescence signal of each well is measured using the Envision reader (Perkin Elmer). The percentage inhibition of 50%, EC50, is calculated for each of the compounds.

[3] = read-out: L. donavani Macrophage EC50
[4] = axenic amastigotes in vitro, read-out: L. donovani amastigotes EC50

Row | SMILES | EC50 [1, 3] [µM] | EC50 [2, 4] [µM] | EC50 ([1]; 120 h, L. donovani in mouse peritoneal macrophages, 5 days culture, SybrGreen parasite nuclei count, read-out: EC50) [µM] | EC50 ([1]; read-out: L. donavani Macrophage EC50 (μM)) [µM] | EC50 ([2]; 48 h, L. donovani axenic amastigotes, 2 day incubation, Cell TiterGlo luminescence, read-out: EC50) [µM]
1 | COC(=O)Nc1ccc(Cl)c(-c2nc3ncc(C#N)cc3[nH]2)c1 [Compound 290] | 17.4 | 15.6 |  |  | 
2 | C[C@@H](CO)NCc1cnc2nc(-c3cc(NC(=O)c4ccco4)ccc3Cl)[nH]c2c1 [Compound 38] | > 50 | > 25 |  |  | 
3 | Cc1cnc2nc(-c3cc(NC(=O)c4ccc(OC(F)(F)F)cc4)ccc3Cl)[nH]c2c1 [Compound 210] | > 37.7 | > 22 |  |  | 
4 | CC(C)Cc1cnc2nc(-c3cc(NC(=O)c4ccco4)ccc3Cl)[nH]c2c1 [Compound 76] | > 50 | > 25 |  |  | 
5 | Cc1cnc2nc(-c3cc(NC(=O)CCCN4CCOCC4)ccc3Cl)[nH]c2c1 [Compound 132] | > 50 | > 25 |  |  | 
6 | O=C(Nc1ccc(Cl)c(-c2nc3ncc(-c4ccc(OCCN5CCCC5)cc4)cc3[nH]2)c1)c1ccco1 [Compound 55] | 6.7 | 2.06 |  |  | 
7 | CC(C)(C)C(=O)Nc1ccc(F)c(-c2nc3ncc(Cl)cc3[nH]2)c1 [Compound 358] | > 50 | > 25 |  |  | 
8 | O=C(Nc1ccc(Cl)c(-c2nc3ncc(-c4ccncc4)cc3[nH]2)c1)c1ccco1 [Compound 10] | 1.12 | 0.89 |  |  | 
9 | COC(=O)c1ccc(-c2cnc3nc(-c4cc(NC(=O)c5ccco5)ccc4Cl)[nH]c3c2)cc1 [Compound 35] | 2.11 | 0.234 |  |  | 
10 | Cc1cnc2nc(-c3cc(NC(=O)CCCN(C)C)ccc3F)[nH]c2c1 [Compound 275] | > 50 | > 25 |  |  | 
11 | O=C(Nc1ccc(Cl)c(-c2nc3ncc(C(F)(F)F)cc3[nH]2)c1)c1ccccc1Cl [Compound 278] | 3.8 | > 25 |  |  | 
12 | O=C(Nc1ccc(F)c(-c2nc3ncc(Cl)cc3[nH]2)c1)c1ccco1 [Example 357, N-(3-{6-chloro-1H-imidazo[4,5-b]pyridin-2-yl}-4-fluorophenyl)furan-2-carboxamide] | 2.51 | 0.6 |  |  | 
13 | Cc1cnc2nc(-c3cc(NC(=O)N4CC[C@@H](F)C4)ccc3Cl)[nH]c2c1 [Compound 234] | 9.7 | 2.03 |  |  | 
14 | CNC(=O)c1ccc(-c2cnc3nc(-c4cc(NC(=O)c5ccco5)ccc4Cl)[nH]c3c2)cn1 [Compound 54] | 0.272 | 0.226 |  |  | 
15 | Cc1cnc2nc(-c3cc(NC(=O)c4cc5ccccn5n4)ccc3F)[nH]c2c1 [Compound 274] | 26.7 | 17 |  |  | 
16 | Cc1ncoc1C(=O)Nc1ccc(F)c(-c2nc3ncc(Br)cc3o2)c1 [Compound 409] | > 50 | 7.5 |  |  | 
17 | CSc1nccc(C(=O)Nc2ccc(Cl)c(-c3nc4ncc(C)cc4[nH]3)c2)n1 [Compound 137] | 15.9 | > 25 |  |  | 
18 | CN(C)CCn1c(-c2cc(NC(=O)N3CCCC3)ccc2Cl)nc2ncc(Br)cc21 [Compound 387] | > 50 | > 25 |  |  | 
19 | O=C(Nc1ccc(Cl)c(-c2nc3ncc(-c4c[nH]cn4)cc3[nH]2)c1)N1CCCC1 [Compound 307] | > 50 | > 25 |  |  | 
20 | Cc1ccnc2nc(-c3cc(NC(=O)c4ccco4)ccc3Cl)[nH]c12 [Compound 3] | > 50 | > 25 |  |  | 
21 | Cc1cnc2nc(-c3cc(NC(=O)CCN)ccc3F)[nH]c2c1 [Compound 268] | > 50 | > 25 |  |  | 
22 | CC(C)OC(=O)Nc1ccc(Cl)c(-c2nc3ncc(-c4ccccc4N)cc3[nH]2)c1 [Compound 334] | 0.99 | 0.26 |  |  | 

Row | SMILES | EC50 [1, 3] [µM] | EC50 [2, 4] [µM] | EC50 ([1]; 120 h, L. donovani in mouse peritoneal macrophages, 5 days culture, SybrGreen parasite nuclei count, read-out: EC50) [µM] | EC50 ([1]; read-out: L. donavani Macrophage EC50 (μM)) [µM] | EC50 ([2]; 48 h, L. donovani axenic amastigotes, 2 day incubation, Cell TiterGlo luminescence, read-out: EC50) [µM]
23 | CNc1ccc(-c2cnc3nc(-c4cc(NC(=O)c5ccc(CN(C)C)o5)ccc4Cl)[nH]c3c2)cc1 [Compound 347] | 7.2 | > 25 |  |  | 
24 | O=C(Nc1ccc(Cl)c(-c2nc3ncc(C(F)(F)F)cc3[nH]2)c1)c1ccc(F)o1 [Compound 284] | 4.1 | 0.7 |  |  | 
25 | Cc1cnc2nc(-c3cc(NC(=O)c4ccns4)ccc3Cl)[nH]c2c1 [Compound 91] | 5.6 | 3.2 |  |  | 
26 | COc1ncc(-c2cnc3nc(-c4cc(NC(=O)c5ccco5)ccc4Cl)[nH]c3c2)cn1 [Compound 9] | 1.2 | 0.45 |  |  | 
27 | O=C(Nc1ccc(Cl)c(-c2nc3ncc(-c4cnn(CCN5CCOCC5)c4)cc3[nH]2)c1)c1ccco1 [Compound 14] | 3.14 | 3.7 |  |  | 
28 | Cc1cnc2nc(-c3cc(NC(=O)c4cncc(Cl)n4)ccc3Cl)[nH]c2c1 [Compound 127] | 4.8 | 1.2 |  |  | 
29 | Cc1cnc2nc(-c3cc(NC(=O)c4cncc(C#N)c4)ccc3Cl)[nH]c2c1 [Compound 101] | > 50 | 13.5 |  |  | 
30 | CC(=O)Nc1ccccc1-c1cnc2nc(-c3cc(NC(=O)c4ccco4)ccc3Cl)[nH]c2c1 [Compound 8] | 1.72 | 0.75 |  |  | 
31 | O=C(Nc1ccc(Cl)c(-c2nc3ncc(-c4ccc(-n5cccn5)cc4)cc3[nH]2)c1)c1ccco1 [Compound 56] | 16 | 3.2 |  |  | 
32 | CC(C)OC(=O)Nc1ccc(-c2cnc3nc(-c4cc(NC(=O)OC(C)C)ccc4Cl)[nH]c3c2)cc1 [Compound 337] | 0.295 | 0.119 |  |  | 
33 | CCOc1cc(C(=O)Nc2ccc(Cl)c(-c3nc4ncc(C)cc4[nH]3)c2)ccn1 [Compound 93] | > 35.5 | > 25 |  |  | 
34 | CC(C)OC(=O)Nc1ccc(Cl)c(-c2nc3ncc(C#N)cc3[nH]2)c1 [Example 287, Propan-2-yl N-(4-chloro-3-{6-cyano-1H-imidazo[4,5-b]pyridin-2-yl}phenyl)carbamate] | 0.078 | 1.44 | ~0.08 |  | 
35 | O=C(Nc1cccc(-c2nc3ncc(-c4ccc(OC(F)(F)F)cc4)cc3[nH]2)c1)c1ccco1 [Compound 41] | 2.2 | 5.9 |  |  | 
36 | CNc1ccc(F)c(-c2nc3ncc(-c4ccc(OCCN5CCOCC5)cc4)cc3o2)c1 [Example 421, 4-Fluoro-N-methyl-3-(6-{4-[2-(morpholin-4-yl)ethoxy]phenyl}-[1,3]oxazolo[4,5-b]pyridin-2-yl)aniline] |  | > 25 |  | > 50 | 
37 | Nc1ccc(-c2cnc3nc(-c4cc(NC(=O)c5ccco5)ccc4Cl)[nH]c3c2)cn1 [Compound 24] | 2.89 | 0.165 |  |  | 
38 | CC(C)CC(=O)Nc1ccc(-c2cnc3nc(-c4cc(NC(=O)c5ccco5)ccc4Cl)[nH]c3c2)cc1 [Compound 13, N-(4-chloro-3-{6-[4-(3-methylbutanamido)phenyl]-1H-imidazo[4,5-b]pyridin-2-yl}phenyl)furan-2-carboxamide] | 0.115 | 0.083 |  |  | ~0.08
39 | O=C(Nc1ccc(Cl)c(-c2nc3ncc(-c4ccc(F)cc4)cc3[nH]2)c1)N1CCCC1 [Compound 293] | 2.47 | 0.38 |  |  | 
40 | O=C(Nc1ccc(Cl)c(-c2nc3ncc(-c4ccc(OCCN5CCOCC5)cc4)cc3[nH]2)c1)N1CCCC1 [Compound 299] | 0.208 | 0.73 |  |  | 
41 | O=C(Nc1ccc(Cl)c(-c2nc3ncc(-c4ccc(CCN5CCOCC5)cc4)cc3[nH]2)c1)c1ccco1 [Example 6, N-[4-chloro-3-(6-{4-[2-(morpholin-4-yl)ethyl]phenyl}-1H-imidazo[4,5-b]pyridin-2-yl)phenyl]furan-2-carboxamide] | 0.65 | 1.96 |  |  | 
42 | COC(=O)Nc1ccc(-c2cnc3nc(-c4cc(NC(=O)N5CCC5)ccc4Cl)[nH]c3c2)cc1 [Compound 344] | 17 | 7.6 |  |  | 
43 | CC(C)OC(=O)Nc1ccc(Cl)c(-c2nc3ncc(-c4ccc(NC(=O)CCN)cc4)cc3[nH]2)c1 [Compound 339] | 1.82 | 3.7 |  |  | 
